The target in assay [1] is T1, human V1a receptor (Homo sapiens, UniProt P37288). Nature of the assay: In-vitro binding assay, 3H-arginine-8-vasopressin, V1a membranes. The following applies: membrane containing human V1a receptor; for IC50: 3H-vasopressin 0.65-0.75 nM; for inhibition at 0.2 µM: read-out: V1a (binding) Percent inhibition at 0.2 μM. The protocol:
(§1) Assay buffer is 50 mM Tris-Cl, 5 mM MgCl2, 0.1% BSA (pH 7.5) containing 5 μg/ml of aprotinin, leupeptin, pepstatin, 50 μg/ml bacitracin, and 1 mM Pefabloc (4-(2-Aminoethyl)-benzenesulfonyl fluoride, hydrochloride manufactured by Roche Diagnostics Corporation, Indianapolis, Ind. and distributed by Boehringer Mannheim). H3 vasopressin is ^3H-arginine-8-vasopressin (NEN Life Sciences, Boston, Mass.; 68.5 Ci/mmol, final concentration in assay is 0.65-0.75 nM). Into wells of 96-well round bottom polypropylene plates are added buffer, test compound, membrane (containing human V1a or V2 receptor), and H3 vasopressin. The reaction plates are allowed to sit at room temperature for one hour. The samples are filtered through Unifilter GF/C plates (PerkinElmer Life Sciences, Boston, Mass.) presoaked in 0.3 polyethyleneimine. The plates are washed 5 times with cold physiological saline containing 0.05% Tween 20. After drying, the bottom of the filter plates are sealed and 0.025 ml of Microscint-20 (Packard Instrument Co, Meriden, Conn.) is added to each filter. The top of the plate is sealed, and the plate is counted. Non-specific binding is determined by the addition of 1.25 μM arginine-8-vasopressin in those wells. % Inh. is calculated as follows: % inhibition=100−100×peak response after drug/peak response before drug

Assay [2] deals with T2, human V2 receptor (Homo sapiens, UniProt P30518). Nature of the assay: V2 vasopressin receptor functional activity (cAMP accumulation, V2-HEK cells). The assay is classed as cell-based. The arrangement: expressed in transfected cells; host or cells: HEK-293. The following applies: inhibition of vasopressin-stimulated cAMP accumulation in V2-HEK cells. The protocol:
The V2 receptor is also a G-protein coupled receptor which when activated induces an increase in cAMP turnover. Antagonism against the V2 receptor is determined by measuring cAMP accumulation in transfected HEK-293 cells expressing the human V-2 receptor (V2-HEK cells). Compounds are tested for their ability to block the stimulatory effects of vasopressin on cAMP accumulation. The cell content of cAMP is measured by radioimmunoassay using NEN flashplates.
On the technique in general: Changes in cAMP serve as a functional read-out for many G protein-coupled receptors.

Assay [3] concerns the target T2, human V2 receptor. Briefly: In-vitro binding assay, 3H-arginine-8-vasopressin, V2 membranes. The following applies: membrane containing human V2 receptor; for inhibition at 0.2 µM: read-out: V2 (binding) Percent inhibition at 0.2 μM; for IC50: 3H-vasopressin 0.65-0.75 nM. The protocol:
as §1

Assay [4] concerns the target T1, human V1a receptor. Briefly: V1a vasopressin receptor functional activity (calcium mobilization, FLIPR, V1a-HEK cells). It counts as cell-based. The following applies: inhibition of vasopressin-induced intracellular calcium mobilization in V1a-HEK cells. The procedure:
The V1a receptor is a G-protein coupled receptor, which upon activation triggers an increase in intracellular calcium mobilization. To evaluate compounds for their functional V1a receptor activity, HEK-293 cells were transfected with the human V1a receptor (V1a-HEK cells). HEK-293 cells were grown in DMEM (Dulbecco's modified Eagle Media) supplemented with 10% FBS and glutamine. HEK-cells were passed biweekly by trypsinization and seeded into 96 well plates at 33,000 cells per well. HEK-293 cells were transfected with human V1a receptor DNA using DMRIE-C reagent from Life Technologies (Carlsbad, Calif.). Stable lines were generated by selecting cells grown in culture media containing geneticin. After growing in Packard Clear-View black 96 well plates for 4-6 days, V1a-HEK cells were loaded with the calcium-sensitive fluorescence dye, FLUO-3 AM. Changes in intracellular calcium mobilization were measured by quantitating intracellular fluorescence using FLIPR (Fluorometric Imaging Plate Reader; Molecular Devices, Sunnyvale, Calif.). Test compounds were first added to the cells and the resulting changes in fluorescence measured to detect receptor agonistic activity. Five minutes later the cells were challenged with vasopressin to test compounds for their antagonistic activity. Receptor antagonists inhibit the ability of vasopressin to stimulate increases in intracellular fluorescence. IC50's were calculated.
(In general: Calcium flux is commonly read through the fluorescence of an indicator in the cells.)

Each structure is given as a SMILES string. Some results are limits rather than exact numbers.

Drawing on patent US7825111B2, “Substituted spiroheterocycles” (Janssen Pharmaceutica NV, priority 2006, dated 2010), this text covers IC50 and inhibition for 15 compounds.

T2 sequence (P30518 whole entry): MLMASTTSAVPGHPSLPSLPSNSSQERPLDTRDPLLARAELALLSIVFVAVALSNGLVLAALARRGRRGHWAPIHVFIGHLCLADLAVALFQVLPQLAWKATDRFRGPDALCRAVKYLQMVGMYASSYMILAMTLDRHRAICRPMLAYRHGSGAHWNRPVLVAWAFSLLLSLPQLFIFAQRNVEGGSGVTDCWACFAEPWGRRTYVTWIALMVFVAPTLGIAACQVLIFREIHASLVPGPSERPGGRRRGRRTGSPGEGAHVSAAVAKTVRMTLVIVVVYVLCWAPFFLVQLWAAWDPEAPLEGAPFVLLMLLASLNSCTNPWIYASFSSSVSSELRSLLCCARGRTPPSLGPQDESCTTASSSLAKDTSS
T1 sequence (P37288 whole entry): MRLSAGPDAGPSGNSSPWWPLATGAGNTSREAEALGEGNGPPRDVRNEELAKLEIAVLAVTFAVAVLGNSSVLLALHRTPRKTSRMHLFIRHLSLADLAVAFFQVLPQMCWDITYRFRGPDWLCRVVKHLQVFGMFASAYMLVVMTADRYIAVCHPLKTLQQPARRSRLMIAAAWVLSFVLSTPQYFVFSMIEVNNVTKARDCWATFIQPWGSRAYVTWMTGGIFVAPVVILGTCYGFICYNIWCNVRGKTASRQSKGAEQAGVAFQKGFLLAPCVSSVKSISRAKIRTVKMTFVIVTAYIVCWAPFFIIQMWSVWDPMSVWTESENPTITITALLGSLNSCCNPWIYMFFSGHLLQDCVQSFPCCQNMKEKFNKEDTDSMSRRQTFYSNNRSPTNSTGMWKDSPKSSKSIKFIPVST

Usually IC50 stands for the concentration needed to halve the response being measured. The term inhibition denotes the drop in the measured response relative to a control, in per cent. As to `O=C(Nc1ccc(C(=O)N2CCC3(CCCNC3=O)Cc3ccccc32)cc1)c1cc(F)ccc1Cl` (stereo not shown) [Compound 7, Benzamide, 2-chloro-N-[4-{(2,3-dihydro-2′-oxospiro[4H-1-benzazepine-4,3-piperidin}-1(5H)-yl)carbonyl}phenyl]-5-fluoro], the IC50 in assay [1] was determined as 9 nM; in assay [2] it was 0.49 µM; in assay [4], 0.05 µM. Moreover, in assay [3], the inhibition at 0.2 µM came to 63%.
In the case of `CN1CCCC2(CCN(C(=O)c3ccc(NC(=O)c4ccccc4-c4ccccc4)cc3)c3ccccc3C2)C1=O` (stereo not shown) [Compound 10, [1,1′-Biphenyl]-2-carboxamide, N-[4-[(2,3-dihydro-1′-methyl-2′-oxospiro{4H-1-benzazepine-4,3′-piperidin}-1(5H)-yl)carbonyl]phenyl}-], the results for the IC50 in assay [1], in assay [3] and in assay [4] were 47 nM, 50 nM and 0.38 µM, respectively.
Regarding `CCN1CCCC2(CCN(C(=O)c3ccc(NC(=O)c4ccccc4-c4ccccc4)cc3)c3ccccc3C2)C1=O` (stereo not shown) [Compound 11, [1,1′-Biphenyl]-2-carboxamide, N-[4-[(2,3-dihydro-1′-ethyl-2′-oxospiro{4H-1-benzazepine-4,3′-piperidin}-1(5H)-yl)carbonyl]phenyl}-], the IC50 in assay [1] was 56 nM; in assay [2] it was 0.132 µM; in assay [3], 61 nM; in assay [4], 0.05 µM.
For `O=C(Nc1ccc(C(=O)N2CCC3(CCNC3=O)Cc3ccccc32)cc1)c1cc(F)ccc1Cl` (stereo not shown) [Compound 18, Benzamide, 2-chloro-N-[4-{(2,3-dihydro-2′-oxospiro[4H-1-benzazepine-4,3-pyrrolidin}-1(5H)-yl)carbonyl}phenyl]-5-fluoro], in that order: 8 nM, 0.226 µM, 150 nM and 0.01 µM.
The matching figures for `CN1CCC2(CCN(C(=O)c3ccc(NC(=O)c4ccccc4-c4ccccc4)cc3)c3ccccc3C2)C1=O` (stereo not shown) [Compound 21, [1,1′-Biphenyl]-2-carboxamide, N-[4-[(2,3-dihydro-1′-methyl-2′-oxospiro{4H-1-benzazepine-4,3′-pyrrolidin}-1(5H)-yl)carbonyl]phenyl}-]: 43 nM, 0.437 µM, 37 nM and 0.08 µM.
`CCOC(=O)CN1CCC2(CCN(C(=O)c3ccc(NC(=O)c4cc(F)ccc4Cl)cc3)c3ccccc3C2)C1=O` (stereo not shown) [Compound 22, Spiro{4H-1-benzazepine-4,3′-pyrrolidin}-1′-acetic acid, 1-[{(2-chloro-5-fluorobenzoyl)amino}benzoyl]1,2,3,5-tetrahydro-2′-oxo, ethyl ester]: the inhibition at 0.2 µM in assay [1] was found to be 66%; in assay [3], 17%.
Turning to `O=C(O)CN1CCC2(CCN(C(=O)c3ccc(NC(=O)c4cc(F)ccc4Cl)cc3)c3ccccc3C2)C1=O` (stereo not shown) [Compound 23, Spiro{4H-1-benzazepine-4,3′-pyrrolidin}-1′-acetic acid, 1-[{(2-chloro-5-fluorobenzoyl)amino}benzoyl]1,2,3,5-tetrahydro-2′-oxo-], the values for the inhibition at 0.2 µM in assay [1] and in assay [3] were 27% and 17%, respectively.
As for `O=C(Nc1ccc(C(=O)N2CCC3(CCNC3=O)Cc3ccccc32)cc1)c1ccccc1-c1ccccc1` (stereo not shown) [Compound 25, [1,1′-Biphenyl]-2-carboxamide, N-[4-[(2,3-dihydro-2′-oxospiro{4H-1-benzazepine-4,3′-pyrrolidin}-1(5H)-yl)carbonyl]phenyl}-], the IC50 in assay [1] was 7 nM; in assay [2], 0.062 µM; in assay [3], 18 nM; in assay [4], 0.054 µM.
Take `O=C(Nc1ccc(C(=O)N2CCC3(CCNC3=O)Cc3ccccc32)cc1)c1ccccc1F` (stereo not shown) [Compound 26, Benzamide, 2-fluoro-N-[4-{(2,3-dihydro-2′-oxospiro[4H-1-benzazepine-4,3-pyrrolidin}-1(5H)-yl)carbonyl}phenyl]]: the IC50 came out at 160 nM in assay [1] and 230 nM in assay [3].
The matching figures for `Cc1ccc(F)cc1C(=O)Nc1ccc(C(=O)N2CCC3(CCNC3=O)Cc3ccccc32)cc1` (stereo not shown) [Compound 27, Spiro{4H-1-benzazepine-4,3′-pyrrolidin}-[{(2-methyl-5-fluorobenzoyl)amino}benzoyl]1,2,3,5-tetrahydro-2′-oxo-]: 15 nM and 89 nM.
For `O=C1CCCC2(CCN(C(=O)c3ccc(NC(=O)c4ccccc4-c4ccccc4)cc3)c3ccccc3C2)N1` (stereo not shown) [Compound 35, [1,1′-Biphenyl]-2-carboxamide, N-[4-[(2,3-dihydro-6′-oxospiro[4H-1-benzazepine-4,2′-piperidin]-1(5H)-yl)carbonyl]phenyl}-], the 50% inhibitory concentration (IC50) came to 45 nM in assay [1], 0.06 µM in assay [2], 230 nM in assay [3] and 0.05 µM in assay [4].
Consider `O=C(Nc1ccc(C(=O)N2CCC3(CCCNC3=O)Cc3ccccc32)cc1)c1ccccc1F` (stereo not shown) [Compound 36, Benzamide, 2-fluoro-N-[4-{(2,3-dihydro-2′-oxospiro[4H-1-benzazepine-4,3-piperidin}-1(5H)-yl)carbonyl}phenyl]], for which the IC50 was 27 nM in assay [1], greater than 3 µM in assay [2] and 0.05 µM in assay [4]. Also, the inhibition at 0.2 µM in assay [3] came out at 17%.
Turning to `O=C(Nc1ccc(C(=O)N2CCC3(CCCNC3=O)Cc3ccccc32)cc1)c1ccccc1` (stereo not shown) [Compound 37, Benzamide, N-[4-{(2,3-dihydro-2′-oxospiro[4H-1-benzazepine-4,3-piperidin}-1(5H)-yl)carbonyl}phenyl]], the IC50 in assay [1] came out at 50 nM; in assay [4], 0.12 µM. Further, the inhibition at 0.2 µM in assay [3] is 23%.
Take `Cc1ccc(F)cc1C(=O)Nc1ccc(C(=O)N2CCC3(CCNC3=O)Cc3ccccc32)cn1` (stereo not shown) [Compound 38, Spiro{4H-1-benzazepine-4,3′-pyrrolidin}-[{(2-methyl-5-fluorobenzoyl)amino}nicotinoyl]1,2,3,5-tetrahydro-2′-oxo-]: the inhibition at 0.2 µM in assay [1] stood at 64%. For the same compound, the 50% inhibitory concentration (IC50) in assay [2] came to 0.036 µM; in assay [3], 93 nM; in assay [4] it was 0.13 µM.
As to `COc1cc(C(=O)N2CCC3(CCN(C)C3=O)Cc3ccccc32)ccc1NC(=O)c1cc(F)ccc1Cl` (stereo not shown) [Compound 39], the inhibition at 0.2 µM in assay [1] is 58%. The IC50 in assay [3] is 8 nM; in assay [4], 0.07 µM.
